Laboratory results taken from article PMC5374441 (Scientific Reports, 2017).
Bridge positions count the residues as written; N and C are the ends. Peptide text beside a SMILES is read from it.

Biological target: T1, Q55K Ls-AChBP mutant (Lymnaea stagnalis, UniProt P58154, Q74K)
T1 construct: made in house; Top10 E. coli is named only for plasmid propagation
Test: biochemical
Format: binding
Settings: SEM

SMILES: CC[C@H](C)[C@@H]1NC(=O)[C@H](CC(N)=O)NC(=O)[C@@H]2CCCN2C(=O)[C@H](CC(N)=O)NC(=O)[C@H](CC(N)=O)NC(=O)[C@H](C(C)C)NC(=O)[C@H](CCCNC(=N)N)NC(=O)[C@@H]2CSSC[C@H](NC(=O)CNC(=O)[C@@H](N)CO)C(=O)N[C@@H](CSSC[C@@H](C(N)=O)NC1=O)C(=O)N[C@@H](CO)C(=O)N[C@@H](CC(N)=O)C(=O)N1CCC[C@H]1C(=O)N[C@@H](C)C(=O)N2 [LsIA] (H-SGCCSNPACRVNNPNIC-NH2; disulfide 3-9, 4-17)
- IC50: 17.4 ± 10.7 µM
